Assay results taken from ChEMBL document CHEMBL4507261, “Data for DCP probe A-192621” (2021).

Key:
[1] = biological target: Adenosine receptor A2a (Homo sapiens) (UniProt P29274); test: A2A (h) Eurofins-Cerep binding assay; design: ligand concentration 6 nM; conditions: filed as agonist, Compound concentration 10.0 uM
[2] = biological target: Tumor necrosis factor (Homo sapiens) (UniProt P01375); test: TNF-alpha (h) Eurofins-Cerep binding assay; conditions: filed as agonist, Compound concentration 10.0 uM
[3] = biological target: Melatonin receptor type 1B (Homo sapiens) (UniProt P49286); test: MT2 (ML1B) (h) Eurofins-Cerep binding assay; design: ligand concentration 0.05 nM; conditions: filed as agonist, Compound concentration 10.0 uM
[4] = biological target: Substance-K receptor (Homo sapiens) (UniProt P21452); test: NK2 (h) Eurofins-Cerep binding assay; design: ligand concentration 0.1 nM; conditions: filed as agonist, Compound concentration 10.0 uM
[5] = biological target: Sigma non-opioid intracellular receptor 1 (Homo sapiens) (UniProt Q99720); test: sigma (non-selective) (h) Eurofins-Cerep binding assay; design: ligand concentration 10 nM; conditions: filed as agonist, Compound concentration 10.0 uM
[6] = biological target: Urotensin-2 receptor (Homo sapiens) (UniProt Q9UKP6); test: UT (h) Eurofins-Cerep binding assay; design: ligand concentration 0.1 nM; conditions: filed as agonist, Compound concentration 10.0 uM
Rattus norvegicus = organism: Rattus norvegicus; test: SKCa channel Eurofins-Cerep binding assay; design: ligand concentration 0.007 nM; conditions: filed as antagonist, Compound concentration 10.0 uM
[7] = biological target: Sodium-dependent noradrenaline transporter (Homo sapiens) (UniProt P23975); test: norepinephrine transporter (h) Eurofins-Cerep binding assay; conditions: filed as antagonist, Compound concentration 10.0 uM
Chain of Sodium-dependent noradrenaline transporter (Homo sapiens) (P23975 whole entry): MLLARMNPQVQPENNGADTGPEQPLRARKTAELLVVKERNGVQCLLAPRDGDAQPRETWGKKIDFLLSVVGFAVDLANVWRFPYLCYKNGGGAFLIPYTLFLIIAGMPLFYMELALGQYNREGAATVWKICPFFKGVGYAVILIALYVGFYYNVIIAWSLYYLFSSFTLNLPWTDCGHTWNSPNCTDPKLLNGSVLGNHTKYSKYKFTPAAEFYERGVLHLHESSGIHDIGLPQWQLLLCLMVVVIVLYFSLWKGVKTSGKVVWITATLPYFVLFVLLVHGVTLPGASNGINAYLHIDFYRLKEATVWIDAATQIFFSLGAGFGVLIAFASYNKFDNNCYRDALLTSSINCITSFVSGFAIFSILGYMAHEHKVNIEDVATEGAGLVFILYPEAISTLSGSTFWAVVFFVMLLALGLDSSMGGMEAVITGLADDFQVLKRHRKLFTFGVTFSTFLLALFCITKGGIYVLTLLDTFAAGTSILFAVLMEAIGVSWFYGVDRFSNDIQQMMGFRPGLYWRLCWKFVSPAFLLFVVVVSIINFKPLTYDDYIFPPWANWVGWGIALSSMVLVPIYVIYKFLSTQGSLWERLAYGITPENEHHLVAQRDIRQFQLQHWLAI

[8] = test system: Tyrosine-protein kinase ABL1 (Homo sapiens), P00519 [F317L]; conditions: Compound concentration 1000.0 nM
[9] = test system: Tyrosine-protein kinase ABL1 (Homo sapiens), P00519 [Y253F]; conditions: Compound concentration 1000.0 nM
[10] = biological target: RAC-alpha serine/threonine-protein kinase (Homo sapiens) (UniProt P31749); conditions: Compound concentration 1000.0 nM
[11] = test system: ALK tyrosine kinase receptor (Homo sapiens), Q9UM73 [L1196M]; conditions: Compound concentration 1000.0 nM
[12] = biological target: Mitogen-activated protein kinase kinase kinase 5 (Homo sapiens) (UniProt Q99683); conditions: Compound concentration 1000.0 nM
[13] = biological target: Bone morphogenetic protein receptor type-1B (Homo sapiens) (UniProt O00238); conditions: Compound concentration 1000.0 nM
[14] = biological target: Protein-tyrosine kinase 6 (Homo sapiens) (UniProt Q13882); conditions: Compound concentration 1000.0 nM
[15] = biological target: Calcium/calmodulin-dependent protein kinase type 1D (Homo sapiens) (UniProt Q8IU85); conditions: Compound concentration 1000.0 nM
[16] = biological target: Calcium/calmodulin-dependent protein kinase type 1G (Homo sapiens) (UniProt Q96NX5); conditions: Compound concentration 1000.0 nM
[17] = biological target: Calcium/calmodulin-dependent protein kinase type II subunit beta (Homo sapiens) (UniProt Q13554); conditions: Compound concentration 1000.0 nM
[18] = biological target: Cyclin-dependent kinase 13 (Homo sapiens) (UniProt Q14004); conditions: Compound concentration 1000.0 nM
[19] = biological target: Serine/threonine-protein kinase Chk2 (Homo sapiens) (UniProt O96017); conditions: Compound concentration 1000.0 nM
[20] = biological target: Serine/threonine-protein kinase 17A (Homo sapiens) (UniProt Q9UEE5); conditions: Compound concentration 1000.0 nM
[21] = biological target: Receptor tyrosine-protein kinase erbB-3 (Homo sapiens) (UniProt P21860); conditions: Compound concentration 1000.0 nM
Chain of Receptor tyrosine-protein kinase erbB-3 (Homo sapiens) (P21860 whole entry): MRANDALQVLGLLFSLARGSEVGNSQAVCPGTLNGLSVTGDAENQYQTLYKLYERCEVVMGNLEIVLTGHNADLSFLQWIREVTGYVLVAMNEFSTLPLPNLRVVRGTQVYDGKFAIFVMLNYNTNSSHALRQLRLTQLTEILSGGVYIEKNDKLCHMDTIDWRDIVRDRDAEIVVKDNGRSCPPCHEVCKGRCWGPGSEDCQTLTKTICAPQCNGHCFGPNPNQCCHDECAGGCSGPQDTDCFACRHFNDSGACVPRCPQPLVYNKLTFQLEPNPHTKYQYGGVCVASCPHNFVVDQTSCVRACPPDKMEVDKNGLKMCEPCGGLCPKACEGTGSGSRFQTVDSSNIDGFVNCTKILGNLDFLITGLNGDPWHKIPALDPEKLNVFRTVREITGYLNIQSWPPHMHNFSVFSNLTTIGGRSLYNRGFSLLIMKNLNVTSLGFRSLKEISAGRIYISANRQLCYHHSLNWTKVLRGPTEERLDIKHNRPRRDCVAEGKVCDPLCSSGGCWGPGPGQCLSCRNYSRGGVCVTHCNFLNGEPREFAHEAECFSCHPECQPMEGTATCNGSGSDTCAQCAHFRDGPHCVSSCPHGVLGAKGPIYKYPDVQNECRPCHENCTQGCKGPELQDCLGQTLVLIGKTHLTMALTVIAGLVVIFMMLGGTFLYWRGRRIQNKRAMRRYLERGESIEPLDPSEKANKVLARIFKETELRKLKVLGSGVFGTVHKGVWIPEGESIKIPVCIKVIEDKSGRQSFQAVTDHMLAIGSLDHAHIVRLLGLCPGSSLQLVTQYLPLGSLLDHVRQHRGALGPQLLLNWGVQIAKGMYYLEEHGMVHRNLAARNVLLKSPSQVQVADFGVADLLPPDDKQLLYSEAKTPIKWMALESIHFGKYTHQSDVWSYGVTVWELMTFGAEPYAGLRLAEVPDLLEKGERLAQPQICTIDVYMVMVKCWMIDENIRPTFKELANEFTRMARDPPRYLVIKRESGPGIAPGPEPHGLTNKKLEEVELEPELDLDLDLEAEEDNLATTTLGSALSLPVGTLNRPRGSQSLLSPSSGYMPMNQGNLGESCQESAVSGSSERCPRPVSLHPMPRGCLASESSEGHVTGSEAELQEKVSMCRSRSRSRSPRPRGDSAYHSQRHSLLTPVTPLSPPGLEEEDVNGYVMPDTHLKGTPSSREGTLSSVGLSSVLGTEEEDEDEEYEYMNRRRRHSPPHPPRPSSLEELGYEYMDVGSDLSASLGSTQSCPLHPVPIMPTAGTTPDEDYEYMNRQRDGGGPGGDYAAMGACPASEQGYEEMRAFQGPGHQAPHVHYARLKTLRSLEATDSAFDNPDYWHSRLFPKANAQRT

[22] = biological target: Inhibitor of nuclear factor kappa-B kinase subunit beta (Homo sapiens) (UniProt O14920); conditions: Compound concentration 1000.0 nM
[23] = biological target: Interleukin-1 receptor-associated kinase 1 (Homo sapiens) (UniProt P51617); conditions: Compound concentration 1000.0 nM
[24] = biological target: Mitogen-activated protein kinase 8 (Homo sapiens) (UniProt P45983); conditions: Compound concentration 1000.0 nM
Chain of Mitogen-activated protein kinase 8 (Homo sapiens) (P45983 whole entry): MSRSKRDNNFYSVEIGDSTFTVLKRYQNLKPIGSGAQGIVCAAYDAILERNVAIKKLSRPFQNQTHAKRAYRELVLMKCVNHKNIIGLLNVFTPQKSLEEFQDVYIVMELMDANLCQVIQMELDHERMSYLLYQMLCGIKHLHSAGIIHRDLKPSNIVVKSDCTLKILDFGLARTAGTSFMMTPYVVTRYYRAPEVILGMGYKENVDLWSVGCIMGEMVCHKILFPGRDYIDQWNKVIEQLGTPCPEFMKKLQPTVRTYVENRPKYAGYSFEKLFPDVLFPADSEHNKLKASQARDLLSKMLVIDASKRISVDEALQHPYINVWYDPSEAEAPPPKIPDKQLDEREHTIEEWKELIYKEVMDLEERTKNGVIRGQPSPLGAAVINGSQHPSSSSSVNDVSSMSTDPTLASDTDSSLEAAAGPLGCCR

[25] = test system: Mast/stem cell growth factor receptor Kit (Homo sapiens), P10721 [A829P]; conditions: Compound concentration 1000.0 nM
[26] = test system: Mast/stem cell growth factor receptor Kit (Homo sapiens), P10721 [L576P]; conditions: Compound concentration 1000.0 nM
Chain of Mast/stem cell growth factor receptor Kit (Homo sapiens), P10721 [L576P] (P10721 whole entry L576P): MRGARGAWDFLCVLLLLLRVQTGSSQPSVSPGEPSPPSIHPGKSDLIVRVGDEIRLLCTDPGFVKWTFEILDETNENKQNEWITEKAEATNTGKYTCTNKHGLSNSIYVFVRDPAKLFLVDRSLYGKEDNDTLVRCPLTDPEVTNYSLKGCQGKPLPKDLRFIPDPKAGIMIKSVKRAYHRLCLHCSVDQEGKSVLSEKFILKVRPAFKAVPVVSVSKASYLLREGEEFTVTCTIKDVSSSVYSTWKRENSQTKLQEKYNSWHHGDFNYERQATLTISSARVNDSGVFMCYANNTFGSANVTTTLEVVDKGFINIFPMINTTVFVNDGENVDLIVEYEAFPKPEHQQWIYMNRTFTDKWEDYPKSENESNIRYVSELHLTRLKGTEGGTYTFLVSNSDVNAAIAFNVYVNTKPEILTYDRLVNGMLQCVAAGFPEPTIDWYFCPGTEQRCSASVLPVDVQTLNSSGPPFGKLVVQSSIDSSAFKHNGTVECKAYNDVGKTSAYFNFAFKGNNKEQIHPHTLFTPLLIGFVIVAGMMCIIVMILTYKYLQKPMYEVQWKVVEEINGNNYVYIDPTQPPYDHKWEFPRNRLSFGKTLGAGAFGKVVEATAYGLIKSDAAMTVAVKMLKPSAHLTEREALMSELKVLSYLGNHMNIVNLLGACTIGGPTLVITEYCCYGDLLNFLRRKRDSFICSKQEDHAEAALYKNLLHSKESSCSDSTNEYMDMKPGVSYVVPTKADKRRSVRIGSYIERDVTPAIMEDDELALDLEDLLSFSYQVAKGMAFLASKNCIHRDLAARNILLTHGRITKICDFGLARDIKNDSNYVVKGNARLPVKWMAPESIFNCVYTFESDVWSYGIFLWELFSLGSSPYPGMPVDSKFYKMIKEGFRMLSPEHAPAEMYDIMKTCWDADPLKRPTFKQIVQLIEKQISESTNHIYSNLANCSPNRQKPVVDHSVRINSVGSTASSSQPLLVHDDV

[27] = test system: Mast/stem cell growth factor receptor Kit (Homo sapiens), P10721 [V559D,V654A]; conditions: Compound concentration 1000.0 nM
Chain of Mast/stem cell growth factor receptor Kit (Homo sapiens), P10721 [V559D,V654A] (P10721 whole entry V559D/V654A): as the sequence (P10721 whole entry L576P) above, with V559D, P576L, V654A counted along it

[28] = biological target: Mast/stem cell growth factor receptor Kit (Homo sapiens) (UniProt P10721); conditions: Compound concentration 1000.0 nM
[29] = biological target: Serine/threonine-protein kinase MAK (Homo sapiens) (UniProt P20794); conditions: Compound concentration 1000.0 nM
[30] = biological target: Mitogen-activated protein kinase kinase kinase kinase 2 (Homo sapiens) (UniProt Q12851); conditions: Compound concentration 1000.0 nM
[31] = biological target: Serine/threonine-protein kinase mTOR (Homo sapiens) (UniProt P42345); conditions: Compound concentration 1000.0 nM
[32] = biological target: Muscle, skeletal receptor tyrosine-protein kinase (Homo sapiens) (UniProt O15146); conditions: Compound concentration 1000.0 nM
[33] = biological target: Myosin light chain kinase family member 4 (Homo sapiens) (UniProt Q86YV6); conditions: Compound concentration 1000.0 nM
[34] = biological target: Serine/threonine-protein kinase Nek4 (Homo sapiens) (UniProt P51957); conditions: Compound concentration 1000.0 nM
[35] = biological target: Serine/threonine-protein kinase PAK 3 (Homo sapiens) (UniProt O75914); conditions: Compound concentration 1000.0 nM
[36] = biological target: Serine/threonine-protein kinase PAK 6 (Homo sapiens) (UniProt Q9NQU5); conditions: Compound concentration 1000.0 nM
[37] = test system: Phosphatidylinositol 4,5-bisphosphate 3-kinase catalytic subunit alpha isoform (Homo sapiens), P42336 [H1047L]; conditions: Compound concentration 1000.0 nM
[38] = test system: Phosphatidylinositol 4,5-bisphosphate 3-kinase catalytic subunit alpha isoform (Homo sapiens), P42336 [Q546K]; conditions: Compound concentration 1000.0 nM
[39] = biological target: Serine/threonine-protein kinase pim-2 (Homo sapiens) (UniProt Q9P1W9); conditions: Compound concentration 1000.0 nM
[40] = biological target: Serine/threonine-protein kinase PRP4 homolog (Homo sapiens) (UniProt Q13523); conditions: Compound concentration 1000.0 nM
[41] = test system: Proto-oncogene tyrosine-protein kinase receptor Ret (Homo sapiens), P07949 [M918T]; conditions: Compound concentration 1000.0 nM
Chain of Proto-oncogene tyrosine-protein kinase receptor Ret (Homo sapiens), P07949 [M918T] (P07949 whole entry M918T): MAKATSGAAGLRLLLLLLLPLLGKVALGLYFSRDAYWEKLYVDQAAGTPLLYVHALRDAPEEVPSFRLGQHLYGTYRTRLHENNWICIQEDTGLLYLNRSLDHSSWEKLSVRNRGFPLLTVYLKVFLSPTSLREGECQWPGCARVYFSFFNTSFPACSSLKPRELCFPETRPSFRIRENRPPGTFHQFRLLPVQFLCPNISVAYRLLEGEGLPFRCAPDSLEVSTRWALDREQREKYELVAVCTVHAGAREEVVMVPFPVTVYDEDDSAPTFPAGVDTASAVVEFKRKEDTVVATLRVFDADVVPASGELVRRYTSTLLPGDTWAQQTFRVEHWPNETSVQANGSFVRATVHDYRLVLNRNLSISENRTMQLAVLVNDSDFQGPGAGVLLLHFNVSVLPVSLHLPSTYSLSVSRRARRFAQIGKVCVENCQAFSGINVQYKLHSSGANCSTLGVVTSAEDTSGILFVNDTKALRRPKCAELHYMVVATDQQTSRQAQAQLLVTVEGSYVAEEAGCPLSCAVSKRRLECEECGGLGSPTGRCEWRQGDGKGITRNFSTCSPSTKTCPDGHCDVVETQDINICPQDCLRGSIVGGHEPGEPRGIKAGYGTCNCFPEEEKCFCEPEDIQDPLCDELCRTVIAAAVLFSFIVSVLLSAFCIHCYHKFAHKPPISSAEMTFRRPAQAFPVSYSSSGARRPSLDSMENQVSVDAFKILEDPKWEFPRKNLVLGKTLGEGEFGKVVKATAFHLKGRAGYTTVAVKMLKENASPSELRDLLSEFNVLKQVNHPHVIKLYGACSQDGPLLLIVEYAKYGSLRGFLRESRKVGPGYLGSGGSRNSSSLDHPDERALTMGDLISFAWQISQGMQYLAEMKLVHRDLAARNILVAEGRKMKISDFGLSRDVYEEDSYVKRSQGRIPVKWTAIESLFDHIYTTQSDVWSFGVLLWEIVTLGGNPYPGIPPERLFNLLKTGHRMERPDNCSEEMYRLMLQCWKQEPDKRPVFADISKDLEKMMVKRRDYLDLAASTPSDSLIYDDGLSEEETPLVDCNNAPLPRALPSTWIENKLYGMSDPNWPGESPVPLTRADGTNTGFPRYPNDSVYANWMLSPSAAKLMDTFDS

[42] = biological target: Ribosomal protein S6 kinase alpha-4 (Homo sapiens) (UniProt O75676); conditions: Compound concentration 1000.0 nM
[43] = biological target: Serine/threonine-protein kinase Sgk3 (Homo sapiens) (UniProt Q96BR1); conditions: Compound concentration 1000.0 nM
[44] = biological target: Tyrosine-protein kinase Yes (Homo sapiens) (UniProt P07947); conditions: Compound concentration 1000.0 nM
Chain of Tyrosine-protein kinase Yes (Homo sapiens) (P07947 2-543 limits assumed): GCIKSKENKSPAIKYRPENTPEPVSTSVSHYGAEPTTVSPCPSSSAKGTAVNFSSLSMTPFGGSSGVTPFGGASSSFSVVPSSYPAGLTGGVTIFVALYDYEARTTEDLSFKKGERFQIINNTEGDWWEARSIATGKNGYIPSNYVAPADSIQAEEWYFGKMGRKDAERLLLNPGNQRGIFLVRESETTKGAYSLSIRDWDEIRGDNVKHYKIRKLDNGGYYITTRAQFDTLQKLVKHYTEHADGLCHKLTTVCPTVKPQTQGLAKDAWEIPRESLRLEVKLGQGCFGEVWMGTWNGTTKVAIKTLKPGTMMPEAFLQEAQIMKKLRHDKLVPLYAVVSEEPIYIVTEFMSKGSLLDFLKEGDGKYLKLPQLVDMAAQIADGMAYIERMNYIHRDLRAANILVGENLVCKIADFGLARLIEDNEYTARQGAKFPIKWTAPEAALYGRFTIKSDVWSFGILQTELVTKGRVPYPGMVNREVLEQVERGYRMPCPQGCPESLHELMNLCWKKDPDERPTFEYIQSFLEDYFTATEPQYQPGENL

CCCOc1ccc([C@H]2[C@H](C(=O)O)[C@@H](c3ccc4c(c3)OCO4)CN2CC(=O)Nc2c(CC)cccc2CC)cc1 [A-192621]
0.5%: % Inhibition of Control Specific Binding (Mean n=2) (Rattus norvegicus)
2.4%: % Inhibition of Control Specific Binding (Mean n=2) [3]
18.3%: % Inhibition of Control Specific Binding (Mean n=2) [4]
39.3%: % Inhibition of Control Specific Binding (Mean n=2) [5]
3.4%: % Inhibition of Control Specific Binding (Mean n=2) [2]
23.9%: % Inhibition of Control Specific Binding (Mean n=2) [6]
inactive: residual activity [8] 62% | residual activity [9] 75% | residual activity [10] 97% | residual activity [11] 91% | residual activity [12] 91% | residual activity [13] 61% | residual activity [14] 84% | residual activity [15] 75% | residual activity [16] 90% | residual activity [17] 99% | residual activity [19] 88% | residual activity [20] 92% | residual activity [21] 78% | residual activity [22] 77% | residual activity [23] 67% | residual activity [24] 70% | residual activity [25] 63% | residual activity [26] 90% | residual activity [27] 98% | residual activity [28] 92% | residual activity [29] 97% | residual activity [30] 79% | residual activity [31] 77% | residual activity [32] 82% | residual activity [33] 75% | residual activity [34] 71% | residual activity [35] 100% | residual activity [36] 68% | residual activity [37] 85% | residual activity [38] 69% | residual activity [39] 91% | residual activity [40] 82% | residual activity [41] 84% | residual activity [42] 84% | residual activity [43] 63% | residual activity [44] 99%
16.2%: % Inhibition of Control Specific Binding (Mean n=2) [7]
-4.8%: % Inhibition of Control Specific Binding (Mean n=2) [1]
active: residual activity [18] 45%

CCCOc1ccc([C@@H]2[C@@H](C(=O)O)[C@H](c3ccc4c(c3)OCO4)CN2CC(=O)Nc2c(CC)cccc2CC)cc1 [A-1806262]
-3%: % Inhibition of Control Specific Binding (Mean n=2) [4]
1.2%: % Inhibition of Control Specific Binding (Mean n=2) [2]
inactive: residual activity [8] 82% | residual activity [9] 87% | residual activity [10] 100% | residual activity [11] 78% | residual activity [12] 97% | residual activity [13] 82% | residual activity [14] 83% | residual activity [15] 97% | residual activity [16] 89% | residual activity [17] 88% | residual activity [18] 81% | residual activity [19] 98% | residual activity [20] 92% | residual activity [21] 84% | residual activity [22] 94% | residual activity [23] 96% | residual activity [24] 87% | residual activity [25] 66% | residual activity [26] 100% | residual activity [27] 94% | residual activity [28] 82% | residual activity [29] 93% | residual activity [30] 98% | residual activity [31] 100% | residual activity [32] 97% | residual activity [33] 100% | residual activity [34] 72% | residual activity [35] 77% | residual activity [36] 83% | residual activity [37] 83% | residual activity [38] 80% | residual activity [39] 99% | residual activity [40] 100% | residual activity [41] 97% | residual activity [42] 97% | residual activity [43] 69% | residual activity [44] 90%
-3.1%: % Inhibition of Control Specific Binding (Mean n=2) [3]
1.6%: % Inhibition of Control Specific Binding (Mean n=2) [7]
-2%: % Inhibition of Control Specific Binding (Mean n=2) (Rattus norvegicus)
-12.4%: % Inhibition of Control Specific Binding (Mean n=2) [1]
-9.7%: % Inhibition of Control Specific Binding (Mean n=2) [5]
9.4%: % Inhibition of Control Specific Binding (Mean n=2) [6]
